Laboratory results: patent US12617762B2, “Carboxy derivatives with antiinflamatory properties” (Sitryx Therapeutics Limited, priority 2019, dated 2026)
Where two headings read alike, the source gives them in different places.

Columns and labels:
[1] = Hepatocyte stability assay, mouse; assay type: in vitro ADME; conditions: mouse, hepatocytes; for hepatocyte CLint at 10 μM: Hepatocyte stability Clint; for half-life at 10 μM: Hepatocyte stability T½
Summary of the method: (§1)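 Cryopreserved hepatocytes (viability >70%), 0.5×10^6 cells/mL in Leibovitz buffer, preincubated 10 min at 37° C, then 10 μM compound (0.1% DMSO) in duplicate; sampled 0-60 min, acetonitrile quench, LC-MS/MS. CLint and half-life from ln % remaining vs time; buffer-only incubation as negative control.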

[2] = test system: NRF2 (nuclear factor erythroid 2-related factor 2); assay: NRF2 +/-GSH activation assay (DiscoverX PathHunter NRF2 translocation kit, U2OS cells); assay type: cell-based
Summary of the method: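 U2OS PathHunter eXpress cells, 24 h post-plating, treated with compound ±GSH (+GSH arm: 30 min compound–GSH pre-incubation, 6 mM working GSH), then 6 h at 37 °C. NRF2 nuclear translocation read by enzyme-fragment-complementation chemiluminescence; % activation normalised to DMF high and untreated low controls.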

[3] = Hepatocyte stability assay, human; assay type: in vitro ADME; conditions: human, hepatocytes; for hepatocyte CLint at 10 μM: Hepatocyte stability Clint; for half-life at 10 μM: Hepatocyte stability T½
Summary of the method: as §1

[4] = test system: IL-1β cytokine output from THP-1s; assay: THP-1 AlphaLISA IL-1β cytokine inhibition assay; assay type: cell-based; conditions: for IC50: Homo sapiens; for IL-1β lowering, result in words: THP-1 IL-1β assay
Summary of the method: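 THP-1 cells differentiated with PMA for 72 h, pre-incubated with compound 30 min, then LPS-primed 24 h and Nigericin-stimulated 1 h (37° C./5% CO2). Supernatant IL-1β measured by AlphaLISA; percentage inhibition normalised to +LPS (high) and −LPS (low) plate controls.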

[5] = test system: IL-6 cytokine output from THP-1s; assay: THP-1 AlphaLISA IL-6 cytokine inhibition assay; assay type: cell-based; conditions: Homo sapiens, THP-1, differentiated THP-1 cells
Experimental: The cytokine inhibition profiles of compounds of formula (I) were determined in a differentiated THP-1 cell assay. All assays were performed in RPMI-1640 growth medium (Gibco), supplemented with 10% fetal bovine serum (FBS; Gibco), 1% penicillin-streptomycin and 1% sodium pyruvate unless specified otherwise. The IL-1β cytokine inhibition assay was run in a background of differentiated THP-1 cells as described below. All reagents described were from Sigma-Aldrich unless specified otherwise. Compounds were prepared as 10 mM DMSO stocks.
THP-1 cells were expanded as a suspension up to 80% confluence in appropriate growth medium. Cells were harvested, suspended, and treated with an appropriate concentration of phorbol 12-myristate 13-acetate (PMA) over a 72 hr period (37° C./5% CO2).
Following 72 hrs of THP-1 cell incubation, cellular medium was removed and replaced with fresh growth media containing 1% of FBS. Working concentrations of compounds were prepared separately in 10% FBS treated growth medium and pre-incubated with the cells for 30 minutes (37° C./5% CO2). Following the 30 minute compound pre-incubation, THP-1s were treated with an appropriate concentration of LPS and the cells were subsequently incubated for a 24 hr period (37° C./5% CO2). An appropriate final concentration of Nigericin was then dispensed into the THP-1 plates and incubated for 1 hour (37° C./5% CO2) before THP-1 supernatants were harvested and collected in separate polypropylene 96-well holding plates.
Reagents from an IL-1β and IL-6 commercial kit (Perkin Elmer) were prepared and run according to the manufacturer's instructions. Subsequently, fluorescence signal detection in a microplate reader was measured (EnVision® Multilabel Reader, Perkin Elmer).
Percentage inhibition was calculated per cytokine by normalising the sample data to the high and low controls used within each plate (+/− LPS respectively).

[6] = +GSH, 30 minute compound-GSH pre-incubation, read-out: NRF2 activation +GSH EC50
[7] = +GSH, normalised to DMF high control
[8] = −GSH, U2OS PathHunter cells, 6 hours compound treatment, read-out: NRF2 activation −GSH EC50
[9] = −GSH, normalised to DMF high control
[10] = THP-1, differentiated THP-1 cells, LPS then nigericin

Row | SMILES | hepatocyte CLint at 10 μM [1] [µL/min/1e6 cells] | half-life at 10 μM [1] [min] | EC50 [2, 6] [µM] | NRF2 activation +GSH Emax [2, 7] [%] | EC50 [2, 8] [µM] | NRF2 activation −GSH Emax [2, 9] [%] | hepatocyte CLint at 10 μM [3] [µL/min/1e6 cells] | half-life at 10 μM [3] [min] | IC50 [4, 10] [µM] | IC50 ([5]; LPS then nigericin) [µM] | IC50 ([4]; THP-1, differentiated THP-1 cells, data from repeated experiments) [µM] | IC50 ([5]; data from repeated experiments) [µM] | IL-1β lowering, result in words [4] | EC50 ([2]; −GSH, Table 5 exo vs endo comparison, read-out: −GSH EC50) [µM] | −GSH Emax ([2]; −GSH, normalised to DMF high control, Table 5 exo vs endo comparison) [%] | IC50 ([4]; THP-1, Table 3, head to head comparison of exo vs endo double bond compounds) [µM]
1 | C=C(Cc1nc(C(C)CCCCCC)no1)C(=O)O (stereo not drawn) [Example 8, 2-((3-(octan-2-yl)-1,2,4-oxadiazol-5-yl)methyl)acrylic acid] | 143 | 10 | 28.1 | 167 | 20.9 | 175 | 28 | 51 | 16.8 | 14 | – | – | – | – | – | –
2 | C=C(Cc1nc(C2(c3ccc(Cl)cc3)CC2)no1)C(=O)O [Example 10, 2-((3-(1-(4-chlorophenyl)cyclopropyl)-1,2,4-oxadiazol-5-yl)methyl)acrylic acid] | 125 | 8 | 45.2 | 53 | 36.8 | 67 | 27 | 47 | 10 | 26.2 | – | – | – | – | – | –
3 | C=C(Cc1nc(CCCCCCC(F)(F)C(F)(F)F)no1)C(=O)O [Example 17, 2-((3-(7,7,8,8,8-pentafluorooctyl)-1,2,4-oxadiazol-5-yl)methyl)acrylic acid] | 105 | 12 | 8.7 | 140 | 5.1 | 179 | 42 | 34 | 19.3 | 5.3 | – | – | – | – | – | –
4 | C=C(Cc1nc(Cc2ccc(-c3ccc(Cl)cc3)cc2)no1)C(=O)O [Example 19, 2-((3-((4′-chloro-[1,1′-biphenyl]-4-yl)methyl)-1,2,4-oxadiazol-5-yl)methyl)acrylic acid] | > 460 | < 3 | 7.4 | 140 | 2.5 | 206 | 63 | 20 | 77 | 3.3 | – | – | – | – | – | –
5 | C=C(Cc1nc(Cc2ccc(CCCC)cc2)no1)C(=O)O [Example 20, 2-((3-(4-butylbenzyl)-1,2,4-oxadiazol-5-yl)methyl)acrylic acid] | 427 | 4 | 3 | 146 | 2.9 | 206 | 70 | 24 | 14.7 | 2.7 | – | – | – | – | – | –
6 | C=C(Cc1nc(C2(c3ccc(C(F)(F)F)cc3)CC2)no1)C(=O)O [Example 22, 2-((3-(1-(4-(trifluoromethyl)phenyl)cyclopropyl)-1,2,4-oxadiazol-5-yl)methyl)acrylic acid] | 42 | 41 | 60.2 | 62 | 48.7 | 69 | 20 | 84 | 10.9 | – | 8.7 | 43.5 | – | – | – | –
7 | C=C(Cc1nc([C@H](C)CCCCCC)no1)C(=O)O [Example 40, (R)-2-((3-(octan-2-yl)-1,2,4-oxadiazol-5-yl)methyl)acrylic acid] | 82 | 20 | 27.5 | 81 | 25.3 | 168 | 21 | 66 | 27 | 18.1 | – | – | – | – | – | –
8 | C=C(Cc1nc([C@@H](C)CCCCCC)no1)C(=O)O [Example 43, (S)-2-((3-(octan-2-yl)-1,2,4-oxadiazol-5-yl)methyl)acrylic acid] | 142 | 12 | 27.4 | 81 | 30.4 | 166 | 33 | 42 | 36.9 | 23.1 | – | – | – | – | – | –
9 | C=C(Cc1nc(C2(c3ccc(F)cc3)CC2)no1)C(=O)O [Example 44, 2-((3-(1-(4-fluorophenyl)cyclopropyl)-1,2,4-oxadiazol-5-yl)methyl)acrylic acid] | 37 | 44 | > 100 | 23 | 28.7 | 65 | 10 | 144 | > 100 | 29.9 | – | – | not effective | – | – | –
10 | C=C(Cc1nc(C2(c3ccc(Br)cc3)CC2)no1)C(=O)O [Example 50, 2-((3-(1-(4-bromophenyl)cyclopropyl)-1,2,4-oxadiazol-5-yl)methyl)acrylic acid] | 146 | 9 | 39.2 | 88 | 35.9 | 150 | 25 | 53 | 4.5 | 20.3 | – | – | – | 35.9 | 150 | 4.5
11 | C=C(Cc1nc(Cc2ccc(OCCCC)cc2)no1)C(=O)O [Example 51, 2-((3-(4-butoxybenzyl)-1,2,4-oxadiazol-5-yl)methyl)acrylic acid] | 278 | 5 | 6.7 | 181 | 4.6 | 269 | 24 | 55 | 53.4 | 5.3 | – | – | – | – | – | –
12 | C=C(Cc1nc(C2(c3ccc(Cl)c(F)c3)CC2)no1)C(=O)O [Example 52, 2-((3-(1-(4-chloro-3-fluorophenyl)cyclopropyl)-1,2,4-oxadiazol-5-yl)methyl)acrylic acid] | 134 | 10 | > 100 | 40 | 15.2 | 78 | 24 | 55 | 19.4 | 25.5 | – | – | – | – | – | –
13 | C=C(Cc1nc(CCCCCCCCC)no1)C(=O)O [Example 53, 2-((3-nonyl-1,2,4-oxadiazol-5-yl)methyl)acrylic acid] | > 460 | < 3 | 1.8 | 71 | 1.8 | 178 | 329 | 4 | 1.8 | 2.6 | – | – | – | – | – | –
14 | C=C(Cc1nc(C(C)CCCCCC(F)(F)F)no1)C(=O)O (stereo not drawn) [Example 54, 2-((3-(8,8,8-trifluorooctan-2-yl)-1,2,4-oxadiazol-5-yl)methyl)acrylic acid] | 13 | 102 | 42.4 | 50 | 44.6 | 115 | 5 | 268 | > 100 | 19.1 | – | – | not effective | – | – | –
15 | C=C(Cc1nc(CCCCCCCCCCC)no1)C(=O)O [Example 56, 2-((3-undecyl-1,2,4-oxadiazol-5-yl)methyl)acrylic acid] | > 460 | < 3 | 3.1 | 110 | 2.8 | 175 | > 460 | < 3 | 3.4 | 3.3 | – | – | – | – | – | –
